# Experimental data published in US20190117770A1, “USES OF IMMUNOCONJUGATES TARGETING CD138” (Biotest AG, priority 2011, published 2019).
# Where “and” joins values, the source holds several entries; their conditions need not be identical. Equal values may be shown once. Entries after “also recorded” stand apart in the source; their conditions may differ. Read-outs that look alike come from different tables or passages of the source.
# Tests used:
# [1] = tested on: Jurkat; test: Sensitivity of cell lines towards BT062; type: cell-based; conditions: T cell lymphoma
# [2] = tested on: relapsed or relapsed refractory multiple myeloma
# Protocol: Initially, the response to treatment was evaluated at day 1 of treatment cycles 1-3 by M-protein quantification using immunoelectrophoresis (IEP) and immunofixation electrophoresis (IFE) from serum and 24-hour urine collection. […] A general quantitative immunoglobulin assessment was done together with M-protein quantification.
# Serum samples were used to perform FLC assays to examine multiple myeloma subjects with no detectable M-protein (nonsecretory/oligosecretory myeloma) and to allow for detection of early response to treatment. Therefore serum FLC assays were performed on day 1, 2, 3, and 8 of treatment cycle 1, on day 2, 3, 8 and 15 of cycle 4, as well as on day 1, 8 and 15 of all other treatment cycles. M-protein and FLC were be analyzed at the screening and at the close-out visit. Evaluations at day 1 of cycle 1 served as baseline values.
# [3] = Plasma level of BT062 (PK ELISA), repeated multiple dose; type: in vivo, human
# Protocol: Theoretical Cmax was Calculated According to the Following Assumed Parameters: […]
# The same evaluation was performed during treatment cycle 4.
# The wells of a microtiter plate are first coated with anti-maytansinoid (anti-DM4) antibody overnight at 2-8° C. and after blocking with assay buffer (0.5% BSA/TBS) incubated on the next day with plasma samples. These are diluted beforehand at least 1:100 in assay buffer. […] After incubation, unbound material is removed by washing. […] Unbound secondary antibody is removed by another washing step. After this, TMB substrate solution is pipetted into all the wells. […] The color reaction is ended using a stop solution, which causes the color to change from blue to yellow. The final measurement is carried out with a photometer at a wavelength of 450 nm.
# The relationship between concentration and optical density is evaluated using Magellan V6.6 software.
# [4] = tested on: primary mammary tumor of a patient; test: Mammary carcinoma xenograft; type: in vivo, NMRI (nude) mice; conditions: for T/C: day 21
# [5] = tested on: human derived breast cancer model with CD138 IHC score 2-3; test: Breast cancer model, CD138 IHC score 2-3; type: in vivo, NMRI nude mice; conditions: 8 mg/kg once weekly
# Text: The results are shown in terms of the effect on the mean relative tumor volume in the model relative to an intravenous administration of PBS. For the calculation of the median relative tumor volume on day, see FIG. 33.
# [6] = tested on: primary pancreatic tumor; test: Example 9 xenograft (FIG. 38); type: in vivo, NMRI (nude) mice; conditions: 4 and 8 mg/kg once weekly; re-growth in treatment free period
# Text: The results are shown in terms of the effect on the mean relative tumor volume.
# [7] = tested on: MOLP8 multiple myeloma cells; test: MOLP8 xenograft, combination BT062 and VELCADE; type: in vivo, mice
# Text: The ACTIVITY RATING is another measurement for the effects of a combination. This rating is based on the Log10 cell kill
# where (T-C) or tumor growth delay, is the median time in days required for the treatment group (T) and the control group (C) tumours, to reach a predetermined size (600 mm^3).
# [8] = tested on: plasma cell myeloma cell line L363; type: in vivo, NOD/SCID mice; conditions: 4 mg/kg BT062 alone, once weekly
# Protocol: In this model, a highly aggressive CD138 expressing plasma cell myeloma cell line L363 was subcutaneously implanted into NOD/SCID mice. Treatment started when tumors reached a size of approx. 100 mm^3. […] Tumor size was measured once weekly.
# [9] = repeated single doses of 160 mg/m^2 (FIG. 28)
substance,measurement,setting,value
BT062,IC50,[1],39 nM
same,treatment cycles of 21 days without disease progression,"[2]; 20 mg/m^2, one patient",10 cycles and Diseases progression after Cycle 10 cycles
same,response (urine M-protein criteria),"[2]; 20 mg/m^2, after 8th treatment",M-Protein criteria for Minor Response reached after 8th
same,Serum M-Protein,"[2]; 40 mg/m^2, after 1st treatment",Serum M-Protein decreased after 1st treatment and stabilized
same,response (FLC criteria),"[2]; 160 mg/m^2, after 2nd, 3rd and 4th administration (FIG. 26)",partial response; also recorded: FLC criteria for Partial Response were reached very early
same,FLC levels reduced vs baseline,"[2]; 160 mg/m^2, after 2nd, 3rd and 4th treatment",> 50%
same,FLC levels reduced vs baseline,"[2]; 160 mg/m^2, during 1st cycle",~40%
same,toxicity in the mucosa,[2]; 200 mg/m^2 dose group,DLTs
same,patients out of 32 with diminished disease progression (at least a fourth treatment cycle),[2]; all dose levels,At least 12
same,MTD,"[2]; human, in vivo",160 mg/m^2
same,decrease of urine M-protein,"[2]; repeated single dosages, e.g. 20, 40, 80 and 120 mg/m^2",more than 50%
same,MAD,[2]; repeated single dose,200 mg/m^2
same,toxicity towards non-cancer cells expressing CD138,[2]; repeated single dose up to 120 mg/m^2,no dose limiting toxicity
same,eye toxicity,"[2]; repeated single dose, not qualifying for DLT",Serious adverse events
same,M-protein levels reduced by,[2]; [9],25%
same,progression free survival,[2]; [9],about 22 months
same,Tolerability,"[2]; single dose every three weeks, 200 mg/m^2",DLTs
same,dose limiting toxicity (DLT) dose,[2]; single dose once in 21 day cycle,200 mg/m^2
same,"% of theoretical Cmax, Mean (%)",[3]; 40 mg/m^2 weekly,33%
same,Mean conc. missing to theor. Cmax per Cycle,"[3]; 40 mg/m^2 weekly, table rows = cycles C1 to C4",19.5
same,"% of theoretical Cmax, Mean (%)",[3]; 50 mg/m^2 weekly,33%
same,Mean conc. missing to theor. Cmax per Cycle,"[3]; 50 mg/m^2 weekly, table rows = cycles C1 to C4",23.3
same,"% of theoretical Cmax, Mean (%)",[3]; 65 mg/m^2 weekly,60%
same,% of theoretical Cmax,"[3]; 65 mg/m^2 weekly, cycle/day C1 D1 to C3 D15",43% and 63% and 72% and 52% and 61% and 71% and 73%
same,Mean conc. missing to theor. Cmax per Cycle,"[3]; 65 mg/m^2 weekly, table rows = cycles C1 to C3",15.3
same,Plasma level/Mean,"[3]; 80 mg/m^2, 2 hr after completion of administration on days 0, 7, 14",22910 ng/mL
same,% of theoretical Cmax,"[3]; 80 mg/m^2 weekly, cycle/day C1 D1 to C3 D15",42% and 45% and 50% and 43% and 39% and 53% and 41%
same,Mean conc. missing to theor. Cmax per Cycle,"[3]; 80 mg/m^2 weekly, table rows = cycles C1 to C3",30.3
same,"% of theoretical Cmax, Mean (%)",[3]; 100 mg/m^2 weekly,108%
same,"% of theoretical Cmax, Mean (%)",[3]; 120 mg/m^2 weekly,69%
same,% of theoretical Cmax,"[3]; 120 mg/m^2 weekly, cycle/day C1 D1 to C2 D15",69% and 74% and 79% and 62% and 67%
same,actual Cmax as % of theoretical Cmax,"[3]; 3×50 mg/m^2 on days 1, 8, 15",< 50%
same,mice with complete remission without tumor regrowth,[4]; 1 mg/kg once weekly,3/7
same,mice with partial remission,[4]; 1 mg/kg once weekly,2/7
same,tumor response,[4]; 1 mg/kg once weekly,tumor stasis
same,T/C,[4]; 13.25 mg/kg/4 mg/kg,0.0
same,T/C,[4]; 23.85 mg/kg,0.0
same,tumor response,[4]; 4 and 2 mg/kg once weekly (FIG. 35),complete remission
same,tumor regrowth in treatment free observation period,[4]; 39 days after the last administration,no tumor regrowth
same,complete remission achieved after,[4]; FIG. 9,21 days
same,T/C value,[4]; both treatment groups,below 10%
same,influence on body weight after each injection,"[4]; mouse, in vivo",no influence on body weight
same,tumor response,[5],complete remission
same,tumor response,[6],complete remission
same,(T − C),[7]; BT062 100 ug/kg,5.5 days
same,Regressions Complete,[7]; BT062 100 ug/kg,0/6
same,Regressions Partial,[7]; BT062 100 ug/kg,0/6
same,Result,[7]; BT062 100 ug/kg,Inactive
same,Tumor free survivors day 67,[7]; BT062 100 ug/kg,0/6
same,log cell kill,[7]; BT062 100 ug/kg,0.5
same,T/C (%),"[7]; BT062 100 ug/kg, Day 1",43%
same,(T − C),[7]; BT062 200 ug/kg,14.5 days
same,Regressions Complete,[7]; BT062 200 ug/kg,0/6
same,Regressions Partial,[7]; BT062 200 ug/kg,1/6
same,Result,[7]; BT062 200 ug/kg,Active
same,Tumor free survivors day 67,[7]; BT062 200 ug/kg,0/6
same,log cell kill,[7]; BT062 200 ug/kg,1.3
same,T/C (%),"[7]; BT062 200 ug/kg, Day 1",11%
same,(T − C),[7]; BT062 400 ug/kg,31.5 days
same,Regressions Complete,[7]; BT062 400 ug/kg,2/6
same,Regressions Partial,[7]; BT062 400 ug/kg,4/6
same,Result,[7]; BT062 400 ug/kg,highly active (A Log10 cell kill of higher than 2.8)
same,Tumor free survivors day 67,[7]; BT062 400 ug/kg,0/6
same,log cell kill,[7]; BT062 400 ug/kg,2.8
same,T/C (%),"[7]; BT062 400 ug/kg, Day 1",7%
same,(T − C),[7]; last line: BT062 400 ug/kg,36.5 days
same,Regressions Complete,[7]; last line: BT062 400 ug/kg,0/6
same,Regressions Partial,[7]; last line: BT062 400 ug/kg,6/6
same,Result,[7]; last line: BT062 400 ug/kg,highly active (A Log10 cell kill of higher than 2.8)
same,Tumor free survivors day 67,[7]; last line: BT062 400 ug/kg,0/6
same,log cell kill,[7]; last line: BT062 400 ug/kg,3.2
same,T/C (%),[7]; last line: BT062 400 ug/kg Day 1,7%
same,tumor growth,[8],active in reducing the tumor growth
